# Values quoted from earlier work in US20040167145A1, “Active ingredient combination for the pharmacological therapy of nicotine dependence” (priority 2001, published 2004).
# Settings: clinical studies; compared with 8% for placebo
smiles,measurement,value
CC(NC(C)(C)C)C(=O)c1cccc(Cl)c1 (stereo not shown) [bupropion],1-year abstinence rate,28%
